Values joined by “and” are separate entries in the source; they are usually repeats but may differ in a detail not shown here. Identical values can stand only once. “Also recorded” adds a separate entry of the source. Like-named read-outs stand apart in the source and are kept apart here. Marks after values point to notes of the source that are not given here.
T1: TR/Trx (Homo sapiens, UniProt Q16881)
T1 sequence (Q16881 1-499 isoform Q16881-5): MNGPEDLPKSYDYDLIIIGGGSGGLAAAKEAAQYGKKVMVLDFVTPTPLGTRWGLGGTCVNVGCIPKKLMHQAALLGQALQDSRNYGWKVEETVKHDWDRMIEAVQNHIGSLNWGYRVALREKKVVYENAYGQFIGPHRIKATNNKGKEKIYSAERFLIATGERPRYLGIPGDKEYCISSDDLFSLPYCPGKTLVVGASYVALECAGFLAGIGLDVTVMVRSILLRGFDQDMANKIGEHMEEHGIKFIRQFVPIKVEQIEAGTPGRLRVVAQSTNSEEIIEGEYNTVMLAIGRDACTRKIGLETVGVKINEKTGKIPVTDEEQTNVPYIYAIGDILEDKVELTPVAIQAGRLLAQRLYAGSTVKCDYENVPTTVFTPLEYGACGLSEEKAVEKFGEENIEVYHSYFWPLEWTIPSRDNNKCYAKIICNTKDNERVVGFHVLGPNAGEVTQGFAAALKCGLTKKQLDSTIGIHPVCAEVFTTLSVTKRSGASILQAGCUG

T2: Human placental thioredoxin reductase (Homo sapiens, UniProt Q16881)
T2 sequence (Q16881 1-499 isoform Q16881-5): T1 sequence (Q16881 1-499 isoform Q16881-5)

T3: thioredoxin (Homo sapiens, UniProt P10599)
T3 construct: made in house; host or cells: E. coli
T3 sequence (P10599 1-105): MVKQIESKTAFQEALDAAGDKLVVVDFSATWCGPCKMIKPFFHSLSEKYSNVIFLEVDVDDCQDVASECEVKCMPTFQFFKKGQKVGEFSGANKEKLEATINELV

B1: thioredoxin: low molecular weight redox protein; human recombinant thioredoxin stimulates proliferation of cancer cells (protein, UniProt P10599 2-105, looked up)
Thioredoxin: VKQIESKTAFQEALDAAGDKLVVVDFSATWCGPCKMIKPFFHSLSEKYSNVIFLEVDVDDCQDVASECEVKCMPTFQFFKKGQKVGEFSGANKEKLEATINELV

Legend:
[1] = biological target: T1, TR/Trx; experiment: Thioredoxin dependent reduction of insulin by human thioredoxin reductase and NADPH (IC50 TR/Trx, 96 well); type: biochemical
Description: When referring to the particular system being analyzed IC50 is typically followed by an abbreviation referring to that system (i.e., IC50 TR/Trx for the above described thioredoxin redox system which is comprised of thioredoxin reductase and thioredoxin).
A second plate was used for the assessment of biological activity or as a biological screen. Aliquots of disulfides dissolved in DMSO, were be transferred into 96 well plates. The assay to assess their ability to inhibit thioredoxin reductase measures the thioredoxin dependent reduction of insulin by human thioredoxin reductase and NADPH. The effects of the disulfides on the reduction of Trx by TR were measured spectrophotometrically by following the reduction of NADPH at 339 nm with insulin as the final electron acceptor in a buffered mixture of TR, Trx, NADPH and insulin.

[2] = tested on: EMT6 mouse mammary tumor cells; settings: 48 h
[3] = in vitro; settings: mouse
[4] = biological target: T2, Human placental thioredoxin reductase; experiment: NADPH oxidation by thioredoxin reductase with the disulfide as substrate, or with thioredoxin and insulin as final electron acceptor and the disulfide as inhibitor; type: biochemical; settings: for Type: behaviour towards thioredoxin reductase: substrate, inhibitor or non-reactive
Protocol: The thioredoxin was stored at −20° C. with 5 mM dithiothreitol which was removed before use with a desalting column (PD10, Pharmacia, Uppsala, Sweden).
Asymmetrical 2-imidazolyl disulfides which were used as a basis for further development and identified below in Table 1. In Table I, NADPH oxidation by thioredoxin reductase was measured spectrophotometrically as described with either the disulfide as the electron acceptor (substrate) or with thioredoxin and insulin as the final electron acceptor and the disulfide as inhibitors. The reactions were initiated by the addition of NADPH. Km and Ki values were calculated from Lineweaver-Burk plots of the data.
The compounds of Table 1 were synthesized by a method described previously and recrystallized prior to use. Stock solutions of the disulfides were prepared at 10 mM in ethanol and diluted in aqueous media just prior to use. N-ethylmaleimide (NEM), diamide, and DTT were obtained from Sigma Chemical Co. (St. Louis, Mo.). All other chemicals used were of reagent grade. […]

[5] = tested on: MCF-7 human breast cancer cells; experiment: Thioredoxin and serum dependent growth of MCF-7 cells; type: cell-based; settings: 48 hr
Protocol: MCF-7 human breast cancer cells were obtained from the American Tissue Type Collection (Rockville, Md.). Cultures were maintained in Dulbecco's Modified Eagles' medium (DMEM) containing 10% fetal bovine serum (fbs) at 37° C. and 6% CO2, and passaged at 75% confluence using 0.025% trypsin. The effect of the disulfides on cell proliferation was measured as previously described and incorporated herein by reference. Briefly, 10^5 cells were plated in a 35 mm culture dish in the above medium and, after attachment for 24 hr, their growth was arrested by changing to DMEM with 0.5% fbs for 48 hr. The medium was then replaced with DMEM containing 10% fbs or 1 μM thioredoxin, with or without the disulfides. The cell number was measured 2 days later following detachment with 0.025% trypsin using a hemocytometer.
The effects of the disulfides on the growth of human MCF-7 breast cancer cells is shown graphically in FIG. 1. […] The cells were growth arrested in medium with 0.5% serum for 48 hr at which time there were 0.2×10^6 cells. DMEM with 1 mM thioredoxin (open symbols) or 10% serum (filled symbols) was added and the increase in cell number over a 48 hr period was measured in the presence of various concentrations of the disulfides. Values are means±SEM. n=6.

[6] = biological target: T3, thioredoxin; experiment: Direct reaction between thioredoxin and disulfides, release of 2-mercaptoimidazole at 252 nm; type: biochemical; settings: thioredoxin 2 μM, disulfide 200 μM, pH 7.4, room temperature
Protocol: The effects of the assymetric disulfides of Table I on the reduction of thioredoxin and C73S by thioredoxin reductase was measured spectrophotometrically by following the reduction of NADPH at 339 nm. […] In some studies the disulfides at 3.5 μM were preincubated for up to 24 hr at room temperature in air with 0.7 μM thioredoxin or C73S in 100 μM HEPES buffer, pH 7.6, and 5 mM EDTA, before measuring the reduction of the thioredoxin or C73S by thioredoxin reductase with 1 mg/ml bovine insulin as the final electron acceptor. The ability of the disulfides to act as substrates for glutathione reductase was measured by following the reduction of NADPH using an incubation mixture containing 0.15 μg/ml glutathione reductase, 140 μM NADPH, 100 mM HEPES buffer, pH 7.6, 5 mM EDTA and the disulfides at 500 μM. The ability of the disulfides to act as inhibitors of glutathione reductase was measured using oxidized glutathione, 50 μM, as the final electron acceptor. In both cases the reaction was initiated by the addition of NADPH. Thioredoxin or C32S/C35S, 2 μM, in 0.1 M sodium phosphate buffer, pH 7.4, was reacted with the disulfides at a concentration of 200 μM at room temperature. This direct reaction between thioredoxin and the disulfides was followed spectrophotometrically as the increase in absorbance at 252 nm due to release of 2-mercaptoimidazole. Initial reaction rates were measured in triplicate.
Due to the fact that the disulfides inhibited thioredoxin-dependent cell growth at concentrations below those required to inhibit thioredoxin reductase, a direct effect of the disulfides on thioredoxin was looked for. The initial reaction between the disulfides and thioredoxin was measured spectrophotometrically (FIGS. 2A and 2B). […] This is the order of reactivity which be predicted from the steric and electronic nature of the disulfides thioalkylating groups.

[7] = tested on: MCF-7 breast cancer cells in scid mice; experiment: Activity against MCF-7 breast cancer cells in scid mice; type: in vivo; settings: for T/C %: tumor volume treated versus control at day 28
Description: This is shown below in Table II.

[8] = tested on: HL60 cells; experiment: Induction of apoptosis in HL60 cells; type: cell-based, human; settings: within 8 h of exposure, same concentration
[9] = tested on: human primary tumors; experiment: Growth of human primary tumors in soft agarose; type: cell-based
[10] = tested on: thioredoxin transfected MCF-7 cells; experiment: Apoptosis in MCF-7 cells transfected with human thioredoxin cDNA; settings: 30 μM, apoptosis measured 48 h later
[11] = tested on: MCF-7 breast cancer cells; settings: read-out: EC50 for growth stimulation; cited from earlier work
[12] = MCF7, in the presence of 1 μM thioredoxin, read-out: IC50 thioredoxin dependent proliferation
[13] = MCF7, with 10% fetal bovine serum, read-out: IC50 serum dependent growth

| Molecule | IC50 [2] | IC50 at 48 h [3] | Type [4] | IC50 [5, 12] | IC50 [5, 13] | initial rate for reaction between thioredoxin and disulfide [6] | apoptosis of HL60 cells [8] | also measured |
| --- | --- | --- | --- | --- | --- | --- | --- | --- |
| CCC(C)SSc1ncnc2[nH]cnc12 (centres unmarked) [Compound F-7] | > 180 µM | > 180 µM | – | – | – | – | – | IC50 ([1]; Table 3, read-out: IC50 TR/Trx (converted)): 95.7 µM |
| CCCCSSc1ncc[nH]1 [III-2, n-butyl 2-imidazolyl disulfide] | – | 12 µM | substrate | 0.2 µM | 35 µM | 7.3e-07 M/s | stimulated to apoptose | Km ([4]; disulfide as substrate for reduction by thioredoxin reductase, Lineweaver-Burk): 43 µM and 43.1 µM; Toxicity dead/injected ([7]; 6 mg/kg/day i.p. for 14 days): 0/8; T/C % ([7]; 6 mg/kg/day i.p. for 14 days): 48.9^c %; Toxicity dead/injected ([7]; 12 mg/kg/day i.p. for 14 days): 0/8; T/C % ([7]; 12 mg/kg/day i.p. for 14 days): 56.6^c %; Toxicity dead/injected ([7]; 18 mg/kg/day i.p. for 14 days): 1/8; T/C % ([7]; 18 mg/kg/day i.p. for 14 days): 100.2%; IC50 ([1]; Table 4, read-out: Disulfide inhibition of TR/Trx (IC50 TR/Trx) (converted)): 117 µM |
| CCC(C)SSc1ncc[nH]1 (centres unmarked) [IV-2, 1-methylpropyl 2-imidazolyl disulfide] | – | 19 µM | competitive inhibitors; also recorded: inhibitor | 1.2 µM | 3.2 µM | 2.8e-07 M/s | stimulated to apoptose | T/C % ([7]; 5 mg/kg/day i.p. for 14 days): 56.7%; T/C % ([7]; 10 mg/kg/day i.p. for 14 days): 45.9^c %; T/C % ([7]; 15 mg/kg/day i.p. for 14 days): 2.3^c %; tumor inhibition ([7]; MCF-7 tumor system): 98%; growth of human primary tumors in soft agarose [9]: inhibited; apoptosis induced in thioredoxin transfected cells [10]: became resistant to apoptosis |
| CC(C)SSCc1ccccc1 [Compound E-19] | 25 µM | 42 µM | – | – | – | – | – | – |
| B1 | – | – | – | – | – | – | – | EC50 [11]: 0.35 µM |
